According to patent publication US10759794B2, “2-phenyl-3-(piperazinomethyl)imidazo[1,2-A]pyridine derivatives as blockers of task-1 and task-2 channels, for the treatment of sleep-related breathing disorders” (BAYER PHARMA AKTIENGESELLSCHAFT, priority 2015, dated 2020):

Key:
human TASK-1 = human TASK-1 (Homo sapiens (Human), UniProt O14649); assay: Inhibition of recombinant TASK-1 in stably transfected CHO cells (voltage-sensitive dye, FLIPR); assay type: cell-based
Protocol: (§1) B-2. Inhibition of Recombinant TASK-1 and TASK-3 In Vitro
(§2) The investigations on the inhibition of the recombinant TASK-1 and TASK-3 channels were carried out using stably transfected CHO cells. Here, the compounds according to the invention were tested with administration of 40 mM of potassium chloride in the presence of a voltage-sensitive dye using the method described in detail in the following references [Whiteaker et al., Validation of FLIPR membrane potential dye for high-throughput screening of potassium channel modulators, J. Biomol. Screen. 6 (5), 305-312 (2001); Molecular Devices FLIPR Application Note: Measuring membrane potential using the FLIPR® membrane potential assay kit on Fluorometric Imaging Plate Reader (FLIPR®) systems, http://www.moleculardevices.com/reagents-supplies/assay-kits/ion-channels/flipr-membrane-potential-assay-kits]. The activity of the test substances was determined as their ability to inhibit a depolarization induced in the recombinant cells by 40 mM potassium chloride. The concentration which can block half of this depolarization is referred to as IC50.

human TASK-3 = human TASK-3 (Homo sapiens (Human), UniProt Q9NPC2); assay: Inhibition of recombinant TASK-3 in stably transfected CHO cells (voltage-sensitive dye, FLIPR); assay type: cell-based
human TASK-3, sequence (Q9NPC2 whole entry): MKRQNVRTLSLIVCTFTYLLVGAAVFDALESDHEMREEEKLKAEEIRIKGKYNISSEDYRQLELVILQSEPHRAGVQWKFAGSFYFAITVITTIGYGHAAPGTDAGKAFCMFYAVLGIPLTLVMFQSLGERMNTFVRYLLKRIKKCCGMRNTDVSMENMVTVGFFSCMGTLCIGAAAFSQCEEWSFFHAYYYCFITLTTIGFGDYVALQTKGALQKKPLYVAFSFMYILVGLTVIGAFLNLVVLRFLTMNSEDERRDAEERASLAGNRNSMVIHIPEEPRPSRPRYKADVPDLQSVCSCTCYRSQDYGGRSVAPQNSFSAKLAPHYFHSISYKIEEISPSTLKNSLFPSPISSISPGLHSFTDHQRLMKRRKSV
Protocol: as §1, §2

[1] = 40 mM potassium chloride, comparative compounds, Table 2B
[2] = depolarization induced by 40 mM potassium chloride, Table 2A

human TASK-1, sequence (O14649 whole entry): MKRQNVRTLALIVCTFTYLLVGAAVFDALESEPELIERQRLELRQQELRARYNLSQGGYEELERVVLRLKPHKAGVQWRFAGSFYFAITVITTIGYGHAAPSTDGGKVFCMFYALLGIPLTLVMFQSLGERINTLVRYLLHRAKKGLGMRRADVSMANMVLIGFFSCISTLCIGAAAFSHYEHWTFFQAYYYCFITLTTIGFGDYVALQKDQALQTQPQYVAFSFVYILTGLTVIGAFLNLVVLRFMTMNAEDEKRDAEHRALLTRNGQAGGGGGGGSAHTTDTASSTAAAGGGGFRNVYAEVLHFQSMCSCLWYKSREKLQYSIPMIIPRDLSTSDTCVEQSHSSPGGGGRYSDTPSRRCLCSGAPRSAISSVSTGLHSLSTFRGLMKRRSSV

Compound | IC50 (human TASK-1; [1]) [nM] | IC50 (human TASK-3; [1]) [nM] | IC50 (human TASK-1; [2]) [nM] | IC50 (human TASK-3; [2]) [nM]
O=C(c1ccccc1Cl)N1CCN(Cc2c(-c3ccc(Cl)cc3)nc3ccc(-c4ccccc4)cn23)CC1 [WO 2014/187922 Example 64, reference compound] | 30000 | 2200 | – | –
N#Cc1ccc(-c2nc3ccccn3c2CN2CCN(C(=O)c3ccccc3F)CC2)cc1 [Example 60] | – | – | 1700 | 4600
COc1ccc(C)c(C(=O)N2CCN(Cc3c(-c4ccc(C#N)cc4)nc4ccccn34)CC2)n1 [Example 71] | – | – | 230 | 16
O=C(C1CCCCO1)N1CCN(Cc2c(-c3ccc(Cl)cc3)nc3ccccn23)CC1 (stereo not drawn) [Example 30] | – | – | 1800 | 400
O=C(c1cccc(Cl)c1)N1CCN(Cc2c(-c3ccc(Cl)cc3)nc3ccccn23)CC1 [Example 36] | – | – | 520 | 190
N#Cc1ccc(-c2nc3ccccn3c2CN2CCN(C(=O)C3CCCCC3)CC2)cc1 [Example 63] | – | – | 1300 | 1600
COc1cccc(-c2nc3ccccn3c2CN2CCN(C(=O)C3CCC3)CC2)c1 [WO 2014/187922 Example 208, reference compound] | 30000 | 30000 | – | –
COc1ccc(F)cc1C(=O)N1CCN(Cc2c(-c3ccc(Br)cc3)nc3ccccn23)CC1 [Example 13] | – | – | 672 | 350
O=C(c1cccc(OC(F)(F)F)n1)N1CCN(Cc2c(-c3ccc(Cl)cc3)nc3ccccn23)CC1 [Example 67, (4-{[2-(4-Chlorophenyl)imidazo [1,2-a]pyridin-3-yl]methyl}piperazin-1-yl) [6-(trifluoromethoxy)pyridin-2-yl]methanone] | – | – | 42 | 9.4
O=C(c1cccc(OC(F)F)n1)N1CCN(Cc2c(-c3ccc(Cl)cc3)nc3ccccn23)CC1 [Example 44] | – | – | 270 | 17
Cc1ccccc1C(=O)N1CCN(Cc2c(-c3ccc(Cl)cc3)nc3ccccn23)CC1 [Example 22] | – | – | 387 | 140
O=C(c1ccccc1F)N1CCN(Cc2c(-c3ccc(Cl)cc3)nc3ccccn23)CC1 [Example 7, (4-{[2-(4-Chlorophenyl)imidazo [1,2-a]pyridin-3-yl]methyl}piperazin-1-yl)(2-fluorophenyl)methanone] | – | – | 350 | 98
Cc1ccccc1C(=O)N1CCN(Cc2c(-c3ccc(Br)cc3)nc3ccccn23)CC1 [Example 14] | – | – | 481 | 310
Cc1ccc(-c2nc3ccccn3c2CN2CCN(C(=O)C3CCCCC3)CC2)cc1 [Example 57] | – | – | 962 | 2900
CC(C)c1ccc(-c2nc3ccccn3c2CN2CCN(C(=O)c3ccccc3F)CC2)cc1 [Example 53] | – | – | 2840 | 1000
O=C(c1cccc(C(F)(F)F)c1)N1CCN(Cc2c(-c3ccc(Cl)cc3)nc3ccccn23)CC1 [Example 25] | – | – | 1900 | 820
O=C(C1CCCCC1)N1CCN(Cc2c(-c3ccc(F)cc3)nc3ccccn23)CC1 [Example 8, (4-{[2-(4-Fluorophenyl)imidazo[1,2-a]pyridin-3-yl]methyl}piperazin-1-yl)(cyclohexyl)methanone] | – | – | 893 | 2500
N#Cc1ccc(-c2nc3ccccn3c2CN2CCN(C(=O)C3CCCC3)CC2)cc1 [Example 62] | – | – | 1200 | 3100
CC(C)(C)c1ccc(-c2nc3ccccn3c2CN2CCN(C(=O)c3ccccc3F)CC2)cc1 [Example 65] | – | – | 1100 | 750
COc1ccc(F)c(C(=O)N2CCN(Cc3c(-c4ccc(C#N)cc4)nc4ccccn34)CC2)c1 [Example 70] | – | – | 1800 | 350
O=C(C1CCCCC1)N1CCN(Cc2c(-c3ccc(Br)cc3)nc3ccccn23)CC1 [Example 9] | – | – | 232 | 200

Compound | IC50 (human TASK-1; [1]) [nM] | IC50 (human TASK-3; [1]) [nM] | IC50 (human TASK-1; [2]) [nM] | IC50 (human TASK-3; [2]) [nM]
COc1cccc(C(=O)N2CCN(Cc3c(-c4ccc(C#N)cc4)nc4ccccn34)CC2)n1 [Example 61] | – | – | 2050 | 1400
O=C(C1CCCCC1)N1CCN(Cc2c(-c3ccc(Cl)cc3)nc3ccccn23)CC1 [Example 17] | – | – | 774 | 510
O=C(C1CCC1)N1CCN(Cc2c(-c3ccc(Br)cc3)nc3ccccn23)CC1 [Example 11] | – | – | 378 | 240
O=C(c1cccc(OC(F)(F)F)c1)N1CCN(Cc2c(-c3ccc(Cl)cc3)nc3ccccn23)CC1 [Example 24] | – | – | 1140 | 810
Cc1ccc(F)cc1C(=O)N1CCN(Cc2c(-c3ccc(Br)cc3)nc3ccccn23)CC1 [Example 15] | – | – | 1170 | 380
O=C(c1cccc(OC2CCOCC2)n1)N1CCN(Cc2c(-c3ccc(Cl)cc3)nc3ccccn23)CC1 [Example 46] | – | – | 1200 | 240
O=C(c1cccc(OC2CCC2)n1)N1CCN(Cc2c(-c3ccc(Cl)cc3)nc3ccccn23)CC1 [Example 41] | – | – | 1300 | 190
O=C(c1cccc(OCC(F)(F)F)n1)N1CCN(Cc2c(-c3ccc(Cl)cc3)nc3ccccn23)CC1 [Example 38] | – | – | 1000 | 30
CCOc1cccc(C(=O)N2CCN(Cc3c(-c4ccc(Cl)cc4)nc4ccccn34)CC2)n1 [Example 45] | – | – | 2000 | 63
CC(C)c1ccccc1C(=O)N1CCN(Cc2c(-c3ccc(Cl)cc3)nc3ccccn23)CC1 [Example 34] | – | – | 400 | 63
O=C(C1CCCO1)N1CCN(Cc2c(-c3ccc(Cl)cc3)nc3ccccn23)CC1 (stereo not drawn) [Example 35] | – | – | 1250 | 790
COc1ccc(Br)c(C(=O)N2CCN(Cc3c(-c4ccc(Cl)cc4)nc4ccccn34)CC2)n1 [Example 42] | – | – | 310 | 13
COc1ccc(C)c(C(=O)N2CCN(Cc3c(-c4ccc(Br)cc4)nc4ccccn34)CC2)n1 [Example 74] | – | – | 67 | 9.1
CC(C)c1cccc(C(=O)N2CCN(Cc3c(-c4ccc(Cl)cc4)nc4ccccn34)CC2)c1 [Example 33] | – | – | 2500 | 2000
COc1ccc(C)c(C(=O)N2CCN(Cc3c(-c4ccc(Cl)cc4)nc4ccccn34)CC2)n1 [Example 72] | – | – | 71 | 3
O=C(C1CCCC1)N1CCN(Cc2c(-c3ccc(F)cc3)nc3ccccn23)CC1 [Example 48] | – | – | 551 | 830
O=C(c1ccccc1Cl)N1CCN(Cc2c(-c3ccc(Cl)cc3)nc3ccccn23)CC1 [Example 37] | – | – | 370 | 60
COc1ccc(F)cc1C(=O)N1CCN(Cc2c(-c3ccc(Cl)cc3)nc3ccccn23)CC1 [Example 21] | – | – | 454 | 150
N#Cc1ccccc1C(=O)N1CCN(Cc2c(-c3ccc(Cl)cc3)nc3ccccn23)CC1 [Example 32] | – | – | 430 | 130
O=C(c1ccccc1F)N1CCN(Cc2c(-c3ccc(C4CC4)cc3)nc3ccccn23)CC1 [Example 69, (4-{[2-(4-Cyclopropylphenyl)imidazo[1,2-a]pyridin-3-yl]methyl}piperazin-1-yl)(2-fluorophenyl)methanone] | – | – | 66 | 11
O=C(c1cc(F)ccc1Cl)N1CCN(Cc2c(-c3ccc(Br)cc3)nc3ccccn23)CC1 [Example 6, (4-{[2-(4-Bromophenyl)imidazo[1,2-a]pyridin-3-yl]methyl}piperazin-1-yl)(2-chloro-5-fluorophenyl)methanone] | – | – | 500 | 360
